Tests used:
Assay type in all cases: cell-based
human TLR8 = target: T1, human TLR8 (Homo sapiens, UniProt Q9NR97); assay: TLR8 inhibition reporter assay (HEK-Blue SEAP reporter, R848 stimulation); conditions: HEK-Blue cells overexpressing human TLR8, SEAP reporter, R848 15.9 μM, 22 hour incubation
T1 construct: host or cells: HEK-Blue cells
T1 sequence (Q9NR97 27-1041): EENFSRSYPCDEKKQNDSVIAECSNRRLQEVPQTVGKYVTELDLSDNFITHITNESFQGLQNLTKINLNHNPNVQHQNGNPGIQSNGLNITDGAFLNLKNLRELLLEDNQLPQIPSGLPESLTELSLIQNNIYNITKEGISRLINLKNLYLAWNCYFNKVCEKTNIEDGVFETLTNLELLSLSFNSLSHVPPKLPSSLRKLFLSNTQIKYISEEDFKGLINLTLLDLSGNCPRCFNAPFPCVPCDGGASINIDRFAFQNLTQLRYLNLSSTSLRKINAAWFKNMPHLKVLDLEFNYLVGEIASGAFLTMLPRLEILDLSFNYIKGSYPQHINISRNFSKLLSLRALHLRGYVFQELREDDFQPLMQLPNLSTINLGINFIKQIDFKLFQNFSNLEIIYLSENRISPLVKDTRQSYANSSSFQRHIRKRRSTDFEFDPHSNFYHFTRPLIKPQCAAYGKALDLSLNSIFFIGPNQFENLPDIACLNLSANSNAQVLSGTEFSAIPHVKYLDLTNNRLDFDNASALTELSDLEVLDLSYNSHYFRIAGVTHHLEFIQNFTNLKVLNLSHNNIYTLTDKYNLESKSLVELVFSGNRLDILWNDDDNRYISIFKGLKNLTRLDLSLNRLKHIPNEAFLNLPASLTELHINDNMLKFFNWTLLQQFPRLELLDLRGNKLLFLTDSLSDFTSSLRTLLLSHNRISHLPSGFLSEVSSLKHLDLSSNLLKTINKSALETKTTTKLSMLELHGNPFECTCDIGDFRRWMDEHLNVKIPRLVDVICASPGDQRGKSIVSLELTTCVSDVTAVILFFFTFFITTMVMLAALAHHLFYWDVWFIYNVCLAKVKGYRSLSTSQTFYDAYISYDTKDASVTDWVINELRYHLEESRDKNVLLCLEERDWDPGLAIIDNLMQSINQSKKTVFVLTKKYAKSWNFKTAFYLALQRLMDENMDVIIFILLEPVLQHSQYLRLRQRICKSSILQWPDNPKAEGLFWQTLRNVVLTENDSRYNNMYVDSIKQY
Outline: (§1)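 Human TLR7/8/9 HEK-Blue reporter lines; dose range 0.05 nM–50 μM; 30 min RT preincubation; stimulus gardiquimod 7.5 μM / R848 15.9 μM / ODN2006 5 nM respectively; 22 h, 37 °C; SEAP detected colorimetrically.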

human TLR7 = target: T2, human TLR7 (Homo sapiens, UniProt Q9NYK1); assay: TLR7 inhibition reporter assay (HEK-Blue SEAP reporter, gardiquimod stimulation); conditions: HEK-Blue cells overexpressing human TLR7, SEAP reporter, gardiquimod 7.5 μM, 22 hour incubation
T2 construct: host or cells: HEK-Blue cells
T2 sequence (Q9NYK1 27-1049): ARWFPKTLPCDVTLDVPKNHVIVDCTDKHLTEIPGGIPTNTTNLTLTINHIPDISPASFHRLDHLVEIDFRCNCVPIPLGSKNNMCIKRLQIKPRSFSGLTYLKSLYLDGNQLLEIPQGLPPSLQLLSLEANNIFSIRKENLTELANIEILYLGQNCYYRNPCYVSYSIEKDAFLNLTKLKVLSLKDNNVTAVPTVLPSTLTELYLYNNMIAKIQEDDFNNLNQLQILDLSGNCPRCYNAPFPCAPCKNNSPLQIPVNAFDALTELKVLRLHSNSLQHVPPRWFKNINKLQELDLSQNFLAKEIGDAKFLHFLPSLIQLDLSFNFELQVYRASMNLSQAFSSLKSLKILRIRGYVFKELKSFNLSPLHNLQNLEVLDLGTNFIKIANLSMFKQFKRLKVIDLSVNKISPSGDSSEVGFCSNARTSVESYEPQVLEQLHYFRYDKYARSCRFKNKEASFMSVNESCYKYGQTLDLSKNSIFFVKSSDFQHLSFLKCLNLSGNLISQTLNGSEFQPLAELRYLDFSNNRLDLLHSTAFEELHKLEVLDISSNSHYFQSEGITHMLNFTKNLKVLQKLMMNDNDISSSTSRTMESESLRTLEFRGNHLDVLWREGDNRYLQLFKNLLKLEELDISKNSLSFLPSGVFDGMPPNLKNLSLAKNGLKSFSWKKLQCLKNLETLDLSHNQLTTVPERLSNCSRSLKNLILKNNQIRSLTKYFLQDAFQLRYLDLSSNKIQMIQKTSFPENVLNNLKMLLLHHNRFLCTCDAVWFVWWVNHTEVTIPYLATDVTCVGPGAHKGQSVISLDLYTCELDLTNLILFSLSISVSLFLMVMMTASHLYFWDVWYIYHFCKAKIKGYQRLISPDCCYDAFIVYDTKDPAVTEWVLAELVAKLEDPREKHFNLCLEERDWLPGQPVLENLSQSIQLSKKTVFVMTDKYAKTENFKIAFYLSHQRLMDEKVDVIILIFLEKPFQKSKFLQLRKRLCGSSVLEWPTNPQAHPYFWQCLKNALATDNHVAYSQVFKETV
Outline: as §1

human TLR9 = target: T3, human TLR9 (Homo sapiens, UniProt Q9NR96); assay: TLR9 inhibition reporter assay (HEK-Blue SEAP reporter, ODN2006 stimulation); conditions: HEK-Blue cells overexpressing human TLR9, SEAP reporter, ODN2006 5 nM, 22 hour incubation
T3 construct: host or cells: HEK-Blue cells
T3 sequence (Q9NR96 26-1032): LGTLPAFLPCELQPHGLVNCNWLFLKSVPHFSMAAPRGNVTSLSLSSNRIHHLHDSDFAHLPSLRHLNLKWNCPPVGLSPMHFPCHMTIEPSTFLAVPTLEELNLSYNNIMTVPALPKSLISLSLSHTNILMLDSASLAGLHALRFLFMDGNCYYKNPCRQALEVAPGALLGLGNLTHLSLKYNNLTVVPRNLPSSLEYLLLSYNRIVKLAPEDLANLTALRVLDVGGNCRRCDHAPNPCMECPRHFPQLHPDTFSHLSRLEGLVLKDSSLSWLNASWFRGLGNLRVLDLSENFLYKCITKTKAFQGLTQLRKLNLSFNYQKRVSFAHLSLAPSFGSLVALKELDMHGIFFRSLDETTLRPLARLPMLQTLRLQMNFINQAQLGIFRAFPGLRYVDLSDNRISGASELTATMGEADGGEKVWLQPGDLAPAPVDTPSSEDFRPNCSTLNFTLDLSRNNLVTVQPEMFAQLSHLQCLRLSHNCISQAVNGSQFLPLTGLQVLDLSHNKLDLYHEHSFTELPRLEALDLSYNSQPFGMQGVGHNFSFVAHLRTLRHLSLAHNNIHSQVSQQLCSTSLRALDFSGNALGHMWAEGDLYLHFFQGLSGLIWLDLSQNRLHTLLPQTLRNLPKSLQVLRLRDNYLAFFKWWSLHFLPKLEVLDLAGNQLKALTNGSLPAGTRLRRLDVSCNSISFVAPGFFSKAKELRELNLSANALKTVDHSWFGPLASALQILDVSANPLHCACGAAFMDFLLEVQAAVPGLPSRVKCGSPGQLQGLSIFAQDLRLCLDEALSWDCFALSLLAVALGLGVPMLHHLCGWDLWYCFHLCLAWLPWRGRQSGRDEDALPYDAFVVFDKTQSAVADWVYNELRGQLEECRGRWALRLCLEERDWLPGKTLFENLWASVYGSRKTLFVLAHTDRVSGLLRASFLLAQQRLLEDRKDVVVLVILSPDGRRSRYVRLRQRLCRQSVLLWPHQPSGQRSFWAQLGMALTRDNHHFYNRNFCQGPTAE
Outline: as §1

Row | SMILES | IC50 (human TLR8) | IC50 (human TLR7) | IC50 (human TLR9)
1 | Cc1c(-c2[nH]c3ccc(C4CCN(C(=O)CN(C)C)CC4)cc3c2C(C)C)cc(C#N)c(=O)n1C [Example 273, 5-(5-(1-(dimethylglycyl)piperidin-4-yl)-3-isopropyl-1H-indol-2-yl)-1,6-dimethyl-2-oxo-1,2-dihydropyridine-3-carbonitrile] | 16 nM | 90.2 nM | 2080 nM
2 | Cc1c(-c2[nH]c3ccc(C4CCN(C(=O)CN(C)C)CC4)cc3c2C(C)C)cn(C)c(=O)c1C#N [Example 274, 5-(5-(1-(dimethylglycyl)piperidin-4-yl)-3-isopropyl-1H-indol-2-yl)-1,4-dimethyl-2-oxo-1,2-dihydropyridine-3-carbonitrile] | 15.3 nM | 183 nM | 1590 nM
3 | COc1cc(-c2[nH]c3ccc(C4CCN(C(=O)CN(C)C)CC4)cc3c2C(C)C)c(C)n(C)c1=O [Example 275, 5-(5-(1-(dimethylglycyl)piperidin-4-yl)-3-isopropyl-1H-indol-2-yl)-3-methoxy-1,6-dimethylpyridin-2(1H)-one] | 95.7 nM | 194 nM | 3190 nM
4 | COc1c(C)c(-c2[nH]c3ccc(C4CCN(C(=O)CN(C)C)CC4)cc3c2C(C)C)cn(C)c1=O [Example 276, 5-(5-(1-(dimethylglycyl)piperidin-4-yl)-3-isopropyl-1H-indol-2-yl)-3-methoxy-1,4-dimethylpyridin-2(1H)-one] | 80.2 nM | 52.2 nM | 4760 nM
5 | COCc1cc(-c2[nH]c3ccc(C4CCN(C(=O)CN(C)C)CC4)cc3c2C(C)C)cn(C)c1=O [Example 277, 5-(5-(1-(dimethylglycyl)piperidin-4-yl)-3-isopropyl-1H-indol-2-yl)-3-(methoxymethyl)-1-methylpyridin-2(1H)-one] | 21 nM | 9.3 nM | 15600 nM
6 | Cc1c(-c2[nH]c3ccc(C4CCN(C(=O)CN(C)C)CC4)cc3c2C(C)C)cn(C)c(=O)c1Cl [Example 278, 3-chloro-5-(5-(1-(dimethylglycyl)piperidin-4-yl)-3-isopropyl-1H-indol-2-yl)-1,4-dimethylpyridin-2(1H)-one] | 21 nM | 5.3 nM | 3200 nM
7 | Cc1cc(-c2[nH]c3ccc(C4CCN(C(=O)CN(C)C)CC4)cc3c2C(C)C)c(C)n(C)c1=O [Example 279, 5-(5-(1-(dimethylglycyl)piperidin-4-yl)-3-isopropyl-1H-indol-2-yl)-1,3,6-trimethylpyridin-2(1H)-one] | 5.9 nM | 23.1 nM | 7060 nM
8 | Cc1c(-c2[nH]c3ccc(C4CCN(C(=O)CN(C)C)CC4)cc3c2C(C)C)cn(C)c(=O)c1C [Example 280, 5-(5-(1-(dimethylglycyl)piperidin-4-yl)-3-isopropyl-1H-indol-2-yl)-1,3,4-trimethylpyridin-2(1H)-one] | 9 nM | 6.1 nM | 4570 nM
9 | CCn1cc(-c2[nH]c3ccc(C4CCN(C(=O)CN(C)C)CC4)cc3c2C(C)C)c(C)c(C)c1=O [Example 281, 5-(5-(1-(dimethylglycyl)piperidin-4-yl)-3-isopropyl-1H-indol-2-yl)-1-ethyl-3,4-dimethylpyridin-2(1H)-one] | 29.6 nM | 47.4 nM | 5700 nM
10 | CCn1cc(-c2[nH]c3ccc(C4CCN(C(=O)CN(C)C)CC4)cc3c2C(C)C)cc(C)c1=O [Example 282, 5-(5-(1-(dimethylglycyl)piperidin-4-yl)-3-isopropyl-1H-indol-2-yl)-1-ethyl-3-methylpyridin-2(1H)-one] | 7 nM | 5.2 nM | 6270 nM
11 | Cc1c(-c2[nH]c3ccc(C4CCN(C(=O)CN(C)C)CC4)cc3c2C(C)C)nn(C)c(=O)c1C [Example 283, 6-(5-(1-(dimethylglycyl)piperidin-4-yl)-3-isopropyl-1H-indol-2-yl)-2,4,5-trimethylpyridazin-3(2H)-one] | 46.8 nM | 512 nM | 6250 nM
12 | Cc1cc(-c2[nH]c3ccc(C4CCN(C(=O)CN(C)C)CC4)cc3c2C(C)C)cn(Cc2ccccc2)c1=O [Example 284, 1-benzyl-5-(5-(1-(dimethylglycyl)piperidin-4-yl)-3-isopropyl-1H-indol-2-yl)-3-methylpyridin-2(1H)-one] | 21.8 nM | 6.5 nM | 1660 nM
13 | Cc1cc(-c2[nH]c3ccc(C4CCN(C(=O)CN(C)C)CC4)cc3c2C(C)C)cn(CC(C)C)c1=O [Example 285, 5-(5-(1-(dimethylglycyl)piperidin-4-yl)-3-isopropyl-1H-indol-2-yl)-1-isobutyl-3-methylpyridin-2(1H)-one] | 99.1 nM | 14.6 nM | 3410 nM
14 | COc1cc(-c2[nH]c3ccc(C4CCN(C(=O)CN(C)C)CC4)cc3c2C(C)C)cn(C)c1=O [Example 286, 5-(5-(1-(dimethylglycyl)piperidin-4-yl)-3-isopropyl-1H-indol-2-yl)-3-methoxy-1-methylpyridin-2(1H)-one] | 5.6 nM | 5 nM | 289 nM
